pKi: −log10 of the molar value.
What was measured:
[1] = system: Liver microsome; experiment: Drug metabolism in human liver microsomes at 1 to 10 uM preincubated for 3 mins followed by beta-NADPH addition by LC-MS analysis in presence of albumin; assay type: ADME
[2] = system: Liver microsome; experiment: Drug metabolism in human liver microsomes assessed as 2-(1-(((S)-1-(3-(2-(7-chloroquinolin-2-yl)vinyl)phenyl)-3-(2-(2-hydroxypropan-2-yl)phenyl)propylsulfinyl)methyl)cyclopropyl)acetic acid formation at 0.02 to 0.4 uM preincubated for 3 mins followed by beta-NADPH addition by LC-MS analysis; assay type: ADME
[3] = system: Liver microsome; experiment: Drug metabolism in human liver microsomes assessed as (R)-2-(1-((1-(3-(2-(7-chloroquinolin-2-yl)vinyl)phenyl)-3-(4-hydroxy-2-(2-hydroxypropan-2-yl)phenyl)propylthio)methyl)cyclopropyl)acetic acid formation at 0.02 to 0.4 uM preincubated for 3 mins followed by beta-NADPH addition by LC-MS analysis; assay type: ADME
[4] = system: Liver microsome; experiment: Drug metabolism in human liver microsomes assessed as 2-(1-(((1R)-1-(3-(2-(7-chloroquinolin-2-yl)vinyl)phenyl)-3-hydroxy-3-(2-(2-hydroxypropan-2-yl)phenyl)propylthio)methyl)cyclopropyl)acetic acid formation at 0.02 to 0.4 uM preincubated for 3 mins followed by beta-NADPH addition by LC-MS analysis; assay type: ADME
[5] = system: Liver microsome; experiment: Drug metabolism in human liver microsomes assessed as 2-(1-(((1R)-1-(3-(2-(7-chloroquinolin-2-yl)vinyl)phenyl)-3-(2-(1,2-dihydroxypropan-2-yl)phenyl)propylthio)methyl)cyclopropyl)acetic acid formation at 0.02 to 0.4 uM preincubated for 3 mins followed by beta-NADPH addition by LC-MS analysis; assay type: ADME
[6] = system: Liver microsome; experiment: Drug metabolism in human liver microsomes assessed as 2-(2-((R)-3-((1-(carboxymethyl)cyclopropyl)methylthio)-3-(3-(2-(7-chloroquinolin-2-yl)vinyl)phenyl)propyl)phenyl)-2-hydroxypropanoic acid formation at 0.02 to 0.4 uM preincubated for 3 mins followed by beta-NADPH addition by LC-MS analysis; assay type: ADME
[7] = system: Liver microsome; experiment: (§1) Drug metabolism in human liver microsomes assessed as 2-(1-(((1R)-1-(3-(2-(7-chloroquinolin-2-yl)vinyl)phenyl)-3-hydroxy-3-(2-(2-hydroxypropan-2-yl)phenyl)propylthio)methyl)cyclopropyl)acetic acid formation at 0.4 uM after 15 mins by LC-MS analysis in presence of CYP3A4 inhibitor ketoconazole and troleandomycin; assay type: ADME; conditions: 0.25 h
[8] = Plasma protein binding in human; assay type: ADME, cell-free
[9] = Oral bioavailability in human at 10 mg administered through tablet; assay type: ADME, organism-based; conditions: in vivo
[10] = system: Liver microsome; experiment: Drug metabolism in human liver microsomes at 1 to 10 uM preincubated for 3 mins followed by beta-NADPH addition by LC-MS analysis; assay type: ADME; conditions: TDE = time-dependent effect
[11] = system: Liver microsome; experiment: (§2) Drug metabolism in human liver microsomes assessed as 2-(1-(((1R)-1-(3-(2-(7-chloroquinolin-2-yl)vinyl)phenyl)-3-(2-(1,2-dihydroxypropan-2-yl)phenyl)propylthio)methyl)cyclopropyl)acetic acid formation at 0.4 uM after 15 mins by LC-MS analysis in presence of CYP2C8 inhibitor gemfibrozil 1-O-beta glucuronide and trimethoprim, CYP2C9 inhibitor sulfaphenazole, and CYP2E1 inhibitor DDC; assay type: ADME; conditions: 0.25 h
[12] = system: Liver microsome; experiment: Drug metabolism in human liver microsomes assessed as (R)-2-(1-((1-(3-(2-(7-chloroquinolin-2-yl)vinyl)phenyl)-3-(4-hydroxy-2-(2-hydroxypropan-2-yl)phenyl)propylthio)methyl)cyclopropyl)acetic acid formation at 0.4 uM after 15 mins by LC-MS analysis in presence of CYP2C8 inhibitor gemfibrozil 1-O-beta glucuronide, CYP2A6 inhibitor 8-methoxy-psoralen and DDC; assay type: ADME; conditions: 0.25 h
[13] = system: Liver microsome; experiment: as §1, with “CYP1A2” for “CYP3A4”, “furafylline, CYP2B6 inhibitor clopidogrel, CYP2D6 inhibitor quinidine” for “ketoconazole”, “CYP2C9 inhibitor sulfaphenazole” for “troleandomycin”; assay type: ADME; conditions: 0.25 h
[14] = system: Liver microsome; experiment: Drug metabolism in human liver microsomes assessed as 2-(1-(((1R)-1-(3-(2-(7-chloroquinolin-2-yl)vinyl)phenyl)-3-(2-(1,2-dihydroxypropan-2-yl)phenyl)propylthio)methyl)cyclopropyl)acetic acid formation at 0.4 uM after 15 mins by LC-MS analysis in presence of CYP1A2 inhibitor furafylline, CYP2B6 inhibitor clopidogrel, CYP2D6 inhibitor quinidine and CYP2C9 inhibitor sulfaphenazole; assay type: ADME; conditions: 0.25 h
[15] = system: Liver microsome; experiment: Drug metabolism in human liver microsomes assessed as (R)-2-(1-((1-(3-(2-(7-chloroquinolin-2-yl)vinyl)phenyl)-3-(4-hydroxy-2-(2-hydroxypropan-2-yl)phenyl)propylthio)methyl)cyclopropyl)acetic acid formation at 0.4 uM after 15 mins by LC-MS analysis in presence of CYP1A2 inhibitor furafylline, CYP2B6 inhibitor clopidogrel, CYP2D6 inhibitor quinidine and CYP2C9 inhibitor sulfaphenazole; assay type: ADME; conditions: 0.25 h
[16] = system: Liver microsome; experiment: as §2, with “0.05” for “0.4”, “and” for “and trimethoprim,”, “sulfaphenazole” for “sulfaphenazole, and CYP2E1 inhibitor DDC”; assay type: ADME; conditions: 0.25 h
[17] = system: Liver microsome; experiment: Drug metabolism in human liver microsomes assessed as 2-(1-(((1R)-1-(3-(2-(7-chloroquinolin-2-yl)vinyl)phenyl)-3-hydroxy-3-(2-(2-hydroxypropan-2-yl)phenyl)propylthio)methyl)cyclopropyl)acetic acid formation at 0.1 uM after 12 mins by LC-MS analysis in presence of 2-(1-(((S)-1-(3-(2-(7-chloroquinolin-2-yl)vinyl)phenyl)-3-(2-(2-hydroxypropan-2-yl)phenyl)propylsulfinyl)methyl)cyclopropyl)acetic acid; assay type: ADME; conditions: 0.2 h
[18] = system: Liver microsome; experiment: Drug metabolism in human liver microsomes assessed as 2-(1-(((1R)-1-(3-(2-(7-chloroquinolin-2-yl)vinyl)phenyl)-3-(2-(1,2-dihydroxypropan-2-yl)phenyl)propylthio)methyl)cyclopropyl)acetic acid formation at 0.1 uM after 12 mins by LC-MS analysis in presence of 2-(1-(((S)-1-(3-(2-(7-chloroquinolin-2-yl)vinyl)phenyl)-3-(2-(2-hydroxypropan-2-yl)phenyl)propylsulfinyl)methyl)cyclopropyl)acetic acid; assay type: ADME; conditions: 0.2 h
[19] = system: Liver microsome; experiment: Drug metabolism in human liver microsomes assessed as (R)-2-(1-((1-(3-(2-(7-chloroquinolin-2-yl)vinyl)phenyl)-3-(4-hydroxy-2-(2-hydroxypropan-2-yl)phenyl)propylthio)methyl)cyclopropyl)acetic acid formation at 0.1 uM after 12 mins by LC-MS analysis in presence of 2-(1-(((S)-1-(3-(2-(7-chloroquinolin-2-yl)vinyl)phenyl)-3-(2-(2-hydroxypropan-2-yl)phenyl)propylsulfinyl)methyl)cyclopropyl)acetic acid; assay type: ADME; conditions: 0.2 h
[20] = molecular target: T1, Cytochrome P450 3A4 (Homo sapiens, UniProt P08684); experiment: (§3) Activity of recombinant human CYP3A4 expressed in microsomes isolated from baculovirus infected insect cell assessed as enzyme-mediated (R)-2-(1-((1-(3-(2-(7-chloroquinolin-2-yl)vinyl)phenyl)-3-(4-hydroxy-2-(2-hydroxypropan-2-yl)phenyl)propylthio)methyl)cyclopropyl)acetic acid formation at 1 uM after 60 mins by LC-MS analysis; conditions: 1 h
[21] = molecular target: Cytochrome P450 2C19 (Homo sapiens, UniProt P33261); experiment: as §3, with “CYP2C19” for “CYP3A4”; assay type: ADME; conditions: 1 h
[22] = molecular target: T1, Cytochrome P450 3A4; experiment: Activity of recombinant human CYP3A4 expressed in microsomes isolated from baculovirus infected insect cell assessed as enzyme-mediated compound depletion at 0.02 uM after 30 mins by LC-MS analysis; conditions: 0.5 h
[23] = molecular target: T2, Cytochrome P450 2A6 (Homo sapiens, UniProt P11509); experiment: Activity of recombinant human CYP2A6 expressed in microsomes isolated from baculovirus infected insect cell assessed as enzyme-mediated compound depletion at 0.02 uM after 30 mins by LC-MS analysis; assay type: ADME; conditions: 0.5 h
T2 sequence (P11509 whole entry): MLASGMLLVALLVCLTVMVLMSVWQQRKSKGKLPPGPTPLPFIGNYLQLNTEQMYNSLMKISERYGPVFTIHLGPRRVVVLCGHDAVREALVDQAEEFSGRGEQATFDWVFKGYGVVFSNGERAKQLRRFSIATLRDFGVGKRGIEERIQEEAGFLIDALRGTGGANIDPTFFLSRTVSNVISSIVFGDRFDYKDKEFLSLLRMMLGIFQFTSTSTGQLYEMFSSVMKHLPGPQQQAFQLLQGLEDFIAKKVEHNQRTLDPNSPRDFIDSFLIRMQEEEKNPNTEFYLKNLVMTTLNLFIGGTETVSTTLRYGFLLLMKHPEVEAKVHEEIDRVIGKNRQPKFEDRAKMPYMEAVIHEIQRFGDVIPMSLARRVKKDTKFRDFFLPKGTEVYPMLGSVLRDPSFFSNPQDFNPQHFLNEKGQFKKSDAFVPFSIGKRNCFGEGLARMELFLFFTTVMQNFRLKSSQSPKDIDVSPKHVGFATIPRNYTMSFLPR

[24] = molecular target: T2, Cytochrome P450 2A6; experiment: Activity of recombinant human CYP2A6 expressed in microsomes isolated from baculovirus infected insect cell assessed as enzyme-mediated metabolite formation at 10 uM after 60 mins by LC-MS analysis; assay type: ADME; conditions: 1 h
[25] = molecular target: Cytochrome P450 2C9 (Homo sapiens, UniProt P11712); experiment: Inhibition of recombinant human CYP2C9 expressed in microsomes isolated from baculovirus infected insect cell after 10 mins
[26] = molecular target: T1, Cytochrome P450 3A4; experiment: Activity of recombinant human CYP3A4 expressed in microsomes isolated from baculovirus infected insect cell assessed as enzyme-mediated 2-(1-(((1R)-1-(3-(2-(7-chloroquinolin-2-yl)vinyl)phenyl)-3-hydroxy-3-(2-(2-hydroxypropan-2-yl)phenyl)propylthio)methyl)cyclopropyl)acetic acid formation at 1 uM after 60 mins by LC-MS analysis; conditions: 1 h
[27] = system: Plasma; experiment: Fraction unbound in human plasma; assay type: ADME, cell-free
[28] = Cmax in human at 10 mg, po; assay type: ADME, organism-based; parameters: dose 10 mg, route oral; conditions: in vivo
[29] = system: Plasma; experiment: Unbound plasma concentration in human at 10 mg, po; assay type: ADME, cell-free
[30] = Plasma clearance in human at 3 to 18 mg, iv; assay type: ADME, organism-based

T1 sequence (P08684 whole entry): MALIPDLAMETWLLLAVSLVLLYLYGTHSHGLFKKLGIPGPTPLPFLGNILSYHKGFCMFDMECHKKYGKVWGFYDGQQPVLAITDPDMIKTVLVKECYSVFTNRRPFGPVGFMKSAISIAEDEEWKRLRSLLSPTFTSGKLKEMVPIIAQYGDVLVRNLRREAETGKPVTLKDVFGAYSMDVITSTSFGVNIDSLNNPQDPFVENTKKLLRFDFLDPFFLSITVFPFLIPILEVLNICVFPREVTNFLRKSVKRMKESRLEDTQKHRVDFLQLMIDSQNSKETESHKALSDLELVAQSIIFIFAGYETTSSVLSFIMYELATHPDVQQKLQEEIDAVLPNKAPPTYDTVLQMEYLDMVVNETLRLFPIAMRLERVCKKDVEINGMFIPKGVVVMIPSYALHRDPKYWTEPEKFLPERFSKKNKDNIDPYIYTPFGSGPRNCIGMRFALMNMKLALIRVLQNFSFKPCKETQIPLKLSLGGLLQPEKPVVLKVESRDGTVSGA
Sequence of Cytochrome P450 2C19 (P33261 whole entry): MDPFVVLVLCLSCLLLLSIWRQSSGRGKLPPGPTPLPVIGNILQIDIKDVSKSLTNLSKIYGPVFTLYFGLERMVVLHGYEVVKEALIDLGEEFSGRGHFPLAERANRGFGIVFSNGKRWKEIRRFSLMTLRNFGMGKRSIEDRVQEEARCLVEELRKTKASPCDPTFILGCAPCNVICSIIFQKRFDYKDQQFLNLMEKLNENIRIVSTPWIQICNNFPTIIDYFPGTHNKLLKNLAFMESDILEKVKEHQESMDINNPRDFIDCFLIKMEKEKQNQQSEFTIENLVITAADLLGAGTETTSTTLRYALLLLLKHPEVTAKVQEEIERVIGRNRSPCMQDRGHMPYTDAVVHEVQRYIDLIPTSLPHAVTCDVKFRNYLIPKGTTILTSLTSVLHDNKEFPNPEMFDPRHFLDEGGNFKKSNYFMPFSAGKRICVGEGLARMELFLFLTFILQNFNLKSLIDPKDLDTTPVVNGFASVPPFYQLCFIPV
Sequence of Cytochrome P450 2C9 (P11712 whole entry): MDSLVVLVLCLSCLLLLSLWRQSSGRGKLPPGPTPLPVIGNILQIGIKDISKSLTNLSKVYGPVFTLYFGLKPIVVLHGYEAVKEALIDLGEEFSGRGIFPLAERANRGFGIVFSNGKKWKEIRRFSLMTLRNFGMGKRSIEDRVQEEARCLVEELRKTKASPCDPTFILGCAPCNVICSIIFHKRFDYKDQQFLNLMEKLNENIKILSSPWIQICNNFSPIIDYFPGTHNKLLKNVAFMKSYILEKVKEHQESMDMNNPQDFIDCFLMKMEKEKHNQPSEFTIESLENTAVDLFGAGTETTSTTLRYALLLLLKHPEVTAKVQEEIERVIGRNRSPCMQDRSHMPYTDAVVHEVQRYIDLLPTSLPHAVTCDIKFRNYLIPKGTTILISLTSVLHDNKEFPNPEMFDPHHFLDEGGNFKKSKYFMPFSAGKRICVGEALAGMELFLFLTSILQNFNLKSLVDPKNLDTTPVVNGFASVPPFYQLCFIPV

CC(C)(O)c1ccccc1CC[C@@H](SCC1(CC(=O)[O-])CC1)c1cccc(/C=C/c2ccc3ccc(Cl)cc3n2)c1.[Na+] [MONTELUKAST SODIUM]
Drug metabolism [1]: metabolite_not_detected | Drug metabolism [2]: metabolite_detected | Drug metabolism [3]: metabolite_detected | Drug metabolism [4]: metabolite_detected | Drug metabolism [5]: metabolite_detected | Drug metabolism [6]: metabolite_detected | Drug metabolism [7]: metabolite_not_detected | fraction unbound [8]: < 0.01 | bioavailability [9]: 60% | Drug metabolism [10]: tde | Drug metabolism [11]: metabolite_not_detected | Drug metabolism [12]: metabolite_not_detected | Drug metabolism [13]: metabolite_detected | Drug metabolism [14]: metabolite_detected | Drug metabolism [15]: metabolite_detected | Drug metabolism [16]: metabolite_not_detected | Drug metabolism [17]: metabolite_detected | Drug metabolism [18]: metabolite_not_detected | Drug metabolism [19]: metabolite_not_detected | Drug metabolism [20]: metabolite_detected | Drug metabolism [21]: metabolite_detected | Drug metabolism [22]: metabolite_detected | Drug metabolism [23]: metabolite_detected | Drug metabolism [24]: metabolite_detected | pKi [25]: 5.13 | Drug metabolism [26]: metabolite_detected | Fu [27]: 0.4% | Cmax [28]: 500 ng/mL | Cp(f) [29]: 3 nM | clearance [30]: 0.578 mL/min/kg
